Assay results taken from article PMC5703966, “Systemic clearance and brain distribution of carbazole-based cyanine compounds as Alzheimer’s disease drug candidates” (Scientific Reports, 2017).

What was measured:
[1] = Brain distribution by brain slices experiment; format: in vitro ADME, mouse; details: mouse
Procedure: The unbound volume of distribution in the brain (V u, brain) was determined in fresh brain slices using the protocol published by Friden et al.[25].

[2] = system: AD model mice; parameters: method as in PMID 28032988; details: cited from earlier work
[3] = target: T1, BCRP (Homo sapiens, UniProt Q9UNQ0); experiment: Efflux transporter identification in Caco-2 cell with BCRP specific inhibitors; details: efflux ratio reduced by fumitremorgin C and Ko134, concentration-dependent
T1 sequence (Q9UNQ0 1-655): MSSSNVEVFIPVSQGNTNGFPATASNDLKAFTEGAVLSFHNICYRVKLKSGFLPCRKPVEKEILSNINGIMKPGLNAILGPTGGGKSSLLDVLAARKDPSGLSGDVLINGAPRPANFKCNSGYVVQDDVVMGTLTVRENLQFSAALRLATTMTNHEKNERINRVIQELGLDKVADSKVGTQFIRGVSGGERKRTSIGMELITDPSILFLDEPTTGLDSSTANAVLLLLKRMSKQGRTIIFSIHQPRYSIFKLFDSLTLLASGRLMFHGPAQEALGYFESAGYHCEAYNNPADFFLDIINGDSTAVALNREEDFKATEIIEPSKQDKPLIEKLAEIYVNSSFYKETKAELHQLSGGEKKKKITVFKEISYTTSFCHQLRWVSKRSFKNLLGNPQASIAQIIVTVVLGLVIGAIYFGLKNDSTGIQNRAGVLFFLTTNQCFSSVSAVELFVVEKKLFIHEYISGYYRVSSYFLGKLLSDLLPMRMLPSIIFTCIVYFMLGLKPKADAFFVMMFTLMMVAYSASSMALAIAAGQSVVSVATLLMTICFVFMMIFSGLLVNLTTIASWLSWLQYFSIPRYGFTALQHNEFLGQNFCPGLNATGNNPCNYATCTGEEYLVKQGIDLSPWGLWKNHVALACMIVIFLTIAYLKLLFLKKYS

[4] = system: human hepatocytes; experiment: Hepatocyte stability; format: in vitro ADME; details: well-stirred model
Procedure: (§1) MS/MS. Natural logarithm of peak area ratios (compound peak area normalized by IS peak area) were plotted against time and half-life calculated. […]
(§2) placed into the sample chamber (indicated by the red ring) with 400 µL of PBS into the adjacent chamber.
(§3) The plate was sealed with a self-adhesive lid and incubated at 37 °C on an orbital shaker (1.5 g approx.) for 4 h. Aliquots (100 µL) were removed from each side of the insert, and analyzed after protein precipitation using 4 folds acetonitrile (ACN) containing berberine chloride as internal standard (IS) by LC-MS/MS (Analytical me thod seen below). The experimental procedure outlined in the Thermo Scientific RED device systems brochure was adopted in the present study . The several positive controls […]
In vitro stability in liver microsomes and hepatocytes
Half-life (t1/2) of SLM or SLOH in liver microsomes was determined in duplicate. In phase I reaction, […]
buffer (pH 7.4) including 81 mM Na2HPO4 and 19 mM NaH2PO4 ) at 37 °C, the reaction mixture was prewarmed at 37 °C for 2 minutes before adding NADPH (1.0 mM). In phase II reaction, the compound […]
5 mM MgCl2, 10 μg/mL alamethicin, and 2% (w/v) BSA. […]
reactions were initiated with the addition of UDPGA (5.0 mM). […]

[5] = Blood cell partitioning (blood to plasma ratio); format: in vitro ADME; details: fresh whole blood, 37 °C
Procedure: The blood to plasma ratio was determined using the method shown in supplemental information (Supplemental Methods). […] The blood cell partitioning was calculated as follows. […] Plasma, liver microsomes and hepatocyte binding by RED device The stability of the compounds in plasma, liver microsomes and hepatocyte were studied to ensure the reliability of the binding data. Hepatocyte was deactivated by leaving them on a bench for 2 days and going through a freeze thaw cycle thereafter.

[6] = Liver microsomes binding by RED device; format: in vitro ADME
Procedure: Nonspecific binding in plasma (f u, plasma), microsomes (f u, mic) and hepatocyte (f u, hep) were determined using the method seen in supplemental information (Supplemental Methods). […]
Plasma, liver microsomes and hepatocyte binding by RED device […]
The stability of the compounds in plasma, liver microsomes and hepatocyte were studied to ensure […]
the reliability of the binding data. Hepatocyte was deactivated by leaving them on a bench for 2 days […]
and going through a freeze thaw cycle thereafter. […]
denatured. Testosterone was used as a control for CYP3A to ensure no turnover, so that the enzymes […]
were inactivated. All validation compounds were incubated at 37 °C over 4 h, and in triplicate. […]
For liver mi crosomes without cofactors and […]
mg/mL protein concentration, same as the assay condition) or deactivated hepatocytes (0.5 million […]
cells/mL, same as the assay condition) were added to the donor wells. 10 mM DMSO solutions of SLM […]
and SLOH were diluted to 50 µM (10% DMSO). 490 µL aliquots microsomes (0.51 mg/mL) and […]
hepatocytes (0.51 million cells/mL) were dispensed into a 1.5 mL tube, and then pre-warmed at 37 °C […]
in a shaking water bath. The assay was started by addition of 10 µL aliquots of compound solutions to […]
the corresponding biologica l matrices (final DMSO incubation concentration 0.2%, microsomes […]
concentration 0.50 mg/mL, hepatocytes concentration 0.5 million cells/mL). At 0, 15, 30, 60, 120, 180 […]
as §1, §2
as §3, with “.” for “. The several positive controls”
For control experiments, NADPH, UDPGA and/or liver microsomes were omitted from these incubations. For the purposes of metabolite identification studies, the concentration of SLOH and […]

[7] = human liver microsomes 0.5 mg/mL
[8] = mouse liver microsomes 0.5 mg/mL

| Compound | V u,brain (AD) [1] [mL/g brain] | V u,brain (WT) [1] [mL/g brain] | effect on pathological symptom and memory deterioration [2] | BCRP substrate identification [3] | Hepatocyte scaled Cl hep [4] [mL/min/kg] | blood plasma ratio at 1 h, 1 μM ([5]; human) | blood plasma ratio at 1 h, 1 μM ([5]; mouse) | f u,mic % [6, 7] [%] | f u,mic % [6, 8] |
| --- | --- | --- | --- | --- | --- | --- | --- | --- | --- |
| COCCOCCn1c2ccccc2c2cc(/C=C/c3cc[n+](C)c4ccccc34)ccc21.[I-] [SLM, (E)-4-(2-(9-(2-(2-methoxyethoxy)ethyl)-9H-carbazol-3-yl)-vinyl)-1-methyl-quinolin-1-iumiodide] | 1.50 ± 0.580 | 2.10 ± 0.650 | alleviate the pathological symptom and memory deterioration | substrates | 0.833 ± 0.167 | ~0.82 | ~1.4 | 7.30 ± 0.150 | 11.0 ± 1.06^$ % |
| COCCOCCn1c2ccccc2c2cc(/C=C/c3cc[n+](CCO)c4ccccc34)ccc21 [SLOH, (E)-1-(2-hydroxyethyl)-4-(2-(9-(2-(2-metho-xyethoxy)-ethyl)-9H-carbazol-3-yl)vinyl) quinolin-1-ium chloride] | 1.20 ± 0.240 | 1.40 ± 0.400 | alleviate the pathological symptom and memory deterioration | substrates | 1 ± 0.167 | ~0.76 | ~1.3 | 6.60 ± 1.60 | 17.0 ± 2.40^$ % |
